Measured values from patent US4952678A, “Trisazo dyes” (BASF Aktiengesellschaft, priority 1986, dated 1990).

How the values were obtained:
Format in all cases: physicochemical
[1] = order parameter S in liquid crystal ZLI 2452 (dichroic ratio by polarized absorbance); conditions: room temperature, in ZLI 2452
Description: The order parameter S was determined in accordance with the known equation [formula] in a commercial measurement cell of homogeneous edge orientation (polyimide). The dichroic ratio CR was determined by measuring the absorbences E^.parallel. (measurement with light polarized parallel to the preferential direction of the nematic phase) and E^.perp. (measurement with light polarized perpendicular to the preferential direction of the nematic phase) and applying the relationship [formula] the dye concentration being so chosen as to give an E^.parallel. within the range from 1 to 2. The measurements were carried out on an Hitachi U 3200 spectrophotometer.

[2] = solubility in liquid crystal ZLI 2452 (saturated solution, comparison of absorbances); conditions: room temperature, in ZLI 2452
Description: The solubility was determined as follows:
50 mg of the dye was stirred at room temperature into 1 ml of liquid crystal for 1 week, the saturated solution was centrifuged off the residue, and the solubility was determined by comparing the absorbences.

[3] = absorption maximum in methylene chloride

CCCCC(CC)COc1ccc(N=Nc2ccc(N=Nc3ccc(N=Nc4ccc(OCc5ccccc5)cc4C)cc3)cc2)c(CC)c1 (stereo not drawn) [Example 1]
Order parameter S (at RT) [1]: 0.815 | Solubility L [%] (at RT) [2]: 18.7% | λmax [nm] (CH2 Cl2) [3]: 417 nm

CCCCCCCCOc1ccc(N=Nc2ccc(N=Nc3ccc(N=Nc4ccc(OCc5ccc(CCCCC)cc5)cc4C)cc3)cc2)c(CC)c1 [Example 2]
Order parameter S (at RT) [1]: 0.83 | Solubility L [%] (at RT) [2]: 5.1% | λmax [nm] (CH2 Cl2) [3]: 418 nm

CCCCCCCCOc1ccc(N=Nc2ccc(N=Nc3ccc(N=Nc4ccc(OCc5ccc(CCCCC)cc5)cc4CC)cc3)cc2)c(C)c1 [Example 3]
Order parameter S (at RT) [1]: 0.82 | Solubility L [%] (at RT) [2]: 5.3% | λmax [nm] (CH2 Cl2) [3]: 418 nm

CCCCCCCCOc1ccc(N=Nc2ccc(N=Nc3ccc(N=Nc4ccc(OCc5ccccc5)cc4CC)cc3)cc2)c(CC)c1 [Example 4]
Order parameter S (at RT) [1]: 0.79 | Solubility L [%] (at RT) [2]: 6.4% | λmax [nm] (CH2 Cl2) [3]: 419 nm

CCCCCCCCOc1ccc(N=Nc2ccc(N=Nc3ccc(N=Nc4ccc(OCc5ccc(OCCCCC)cc5)cc4CC)cc3)cc2)c(CC)c1 [Example 5]
Order parameter S (at RT) [1]: 0.79 | Solubility L [%] (at RT) [2]: 3.5% | λmax [nm] (CH2 Cl2) [3]: 418 nm

CCCCC(CC)COc1ccc(N=Nc2ccc(N=Nc3ccc(N=Nc4ccc(OCc5ccccc5)c5ccccc45)cc3)cc2)c(CC)c1 (stereo not drawn) [Example 9]
Order parameter S (at RT) [1]: 0.81 | Solubility L [%] (at RT) [2]: 2.0% | λmax [nm] (CH2 Cl2) [3]: 443 nm

CCCCC(CC)COc1ccc(N=Nc2ccc(N=Nc3ccc(N=Nc4ccc(OCc5ccccc5)cc4CC)cc3)cc2)c2ccccc12 (stereo not drawn) [Example 10]
Order parameter S (at RT) [1]: 0.81 | Solubility L [%] (at RT) [2]: 7.1% | λmax [nm] (CH2 Cl2) [3]: 445 nm

CCCCCCCCOc1ccc(N=Nc2ccc(N=Nc3ccc(N=Nc4ccc(OCc5ccc(OCCCCC)cc5)c5ccccc45)cc3)cc2)c(CC)c1 [Example 11]
Order parameter S (at RT) [1]: 0.79 | Solubility L [%] (at RT) [2]: 3.4% | λmax [nm] (CH2 Cl2) [3]: 437 nm

CCCCCCCCOc1ccc(N=Nc2ccc(N=Nc3ccc(N=Nc4ccc(OCc5ccc(CCCCC)cc5)c5ccccc45)cc3)cc2)c(CC)c1 [Example 12]
Order parameter S (at RT) [1]: 0.79 | Solubility L [%] (at RT) [2]: 2.4% | λmax [nm] (CH2 Cl2) [3]: 441 nm

CCCCCOc1ccc(COc2ccc(N=Nc3ccc(N=Nc4ccc(N=Nc5ccc(OCC(CC)CCCC)cc5CC)cc4)cc3)c3ccccc23)cc1 (stereo not drawn) [Example 13]
Order parameter S (at RT) [1]: 0.79 | Solubility L [%] (at RT) [2]: 2.9% | λmax [nm] (CH2 Cl2) [3]: 435 nm

CCCCCc1ccc(COc2ccc(N=Nc3ccc(N=Nc4ccc(N=Nc5ccc(OCC(CC)CCCC)cc5CC)cc4)cc3)c3ccccc23)cc1 (stereo not drawn) [Example 14]
Order parameter S (at RT) [1]: 0.81 | Solubility L [%] (at RT) [2]: 5.0% | λmax [nm] (CH2 Cl2) [3]: 443 nm

CCCCCCCCCCCCNc1ccc(N=Nc2ccc(N=Nc3ccc(N=Nc4ccc(OCCCCCCCC)cc4CC)cc3)cc2)c2ccccc12 [Example 15]
Order parameter S (at RT) [1]: 0.81 | Solubility L [%] (at RT) [2]: 2.0% | λmax [nm] (CH2 Cl2) [3]: 535 nm

CCCCCCCCCCCCNc1ccc(N=Nc2ccc(N=Nc3ccc(N=Nc4ccc(OCC(CC)CCCC)cc4CC)cc3)cc2)c2ccccc12 (stereo not drawn) [Example 16]
Order parameter S (at RT) [1]: 0.80 | Solubility L [%] (at RT) [2]: 8.0% | λmax [nm] (CH2 Cl2) [3]: 533 nm

CCCCC(CC)COc1ccc(N=Nc2ccc(N=Nc3ccc(N=Nc4ccc(OCc5ccccc5)c5ccccc45)cc3)c3ccccc23)c(CC)c1 (stereo not drawn) [Example 19]
Order parameter S (at RT) [1]: 0.79 | Solubility L [%] (at RT) [2]: 1.6% | λmax [nm] (CH2 Cl2) [3]: 486 nm

CCCCC(CC)COc1ccc(N=Nc2ccc(N=Nc3ccc(N=Nc4ccc(OCc5ccccc5)cc4CC)c4ccccc34)cc2)c2ccccc12 (stereo not drawn) [Example 20]
Order parameter S (at RT) [1]: 0.80 | Solubility L [%] (at RT) [2]: 1.3% | λmax [nm] (CH2 Cl2) [3]: 489 nm

CCCCC(CC)COc1ccc(N=Nc2ccc(N=Nc3ccc(N=Nc4ccc(OCc5ccccc5)cc4CC)c(OC)c3)cc2)c2ccccc12 (stereo not drawn) [Example 21]
Order parameter S (at RT) [1]: 0.79 | Solubility L [%] (at RT) [2]: 5.5% | λmax [nm] (CH2 Cl2) [3]: 459 nm
